Source: patent publication US6548516B1, “1-(3-heteroarylpropyl- or -prop-2-enyl)-4-benzylpiperidines used as NMDA receptor antagonists” (Merck Patent GmbH, priority 1998, dated 2003)

| melting point [°C] | Structure (SMILES) |
| --- | --- |
| 105 to 107 | O=c1[nH]c2ccc(CCCN3CCC(Cc4ccc(F)cc4)CC3)cc2o1 [Example 1, 6-{3-[4-(4-fluorobenzyl)piperid-1-yl]propyl}-3H-benzoxazol-2-one] |
| 202 to 203.5 | O=c1[nH]c2ccc(C=CCN3CCC(Cc4ccc(F)cc4)CC3)cc2o1 [Example 2, 6-{3-[4-(4-fluorobenzyl)piperid-1-yl]propenyl}-3H-benzoxazol-2-one] |
